US6503721B2, “Screen for compounds with affinity for nucleic acids” (Anadys Pharmaceuticals, Inc., priority 1995, dated 2003)

Columns and labels:
[1] = system: AB-RNA; experiment: Hybrid capture on streptavidin-coated paramagnetic beads (AB-RNA : biotinylated oligonucleotide RBS-96-60); format: binding
From the text: SA coated paramagnetic beads: The washing step required when using SA-beads can be facilitated by using paramagnetic-SA coated beads (PMP-SA). These beads are commercially available (Promega, Madison, Wis.) and can be concentrated and held by a magnet. Positioning the magnet under the plate during washing steps concentrates and retains the beads at the bottom of the well during the washing procedure thus preventing loss of beads and allowing faster operation. An example of the use of this method is described in Example 2 below. The [^32P]-labelled ATP-binding RNA described in Example 1 above (AB-RNA) was heat denatured at 90° C. for 2 min in binding buffer (50 mM Tris pH 7.5, 200 mM NaCl, and 10 mM MgCl2) and chilled on ice for 2 min. 37.5 μl aliquots of the heat denatured AB-RNA were then mixed with 12.5 μl of a solution containing 12.5 pmol of the 5′-biotinylated oligonucleotide RBS-96-60 (having a nucleotide sequence identical to RBS-87-8A described in Example 1 above) and varying amounts of ATP or UTP. After a brief incubation at room temperature, the mixture was transferred into 96-well plates containing 0.5 mg paramagnetic beads coated with streptavidin (PMP-SA) (Promega, Madison, Wis.). Plates were incubated at room temperature for 15 min to allow binding. […] [^32P]-labelled AB-RNA bound to the beads was then quantitated by Cerenkov counting in a Microbetta LSC-counter (Wallac).

[2] = system: AB-RNA-F; experiment: Fluorescence SCAN assay, fluorescein-labelled AB-RNA-F and unlabelled oligonucleotide 67B; format: binding; details: for effect on fluorescence increase: FIG. 28B
Method: B. Experimental results: While developing a SCAN assay based on FET between 3′-fluorescein labeled AB-RNA (AB-RNA-F) and a 5′-rhodamine labeled oligonucleotide, it was unexpectedly observed in a control experiment that a substantial increase in fluorescein emission at 535 nm occurred upon addition of an oligonucleotide carrying no fluorescent labels (FIG. 28A). Reactions containing 50 mM Tris pH 7.5, 200 mM NaCl, 10 mM MgCl2, and 60 nM AB-RNA-F were monitored at 535 nm emission (485 nm excitation) in a CytoFluor II fluorescence multi-well plate reader (PerSeptive Biosystems, Framingham,Mass.) for increasing times after the addition of oligonucleotide 67B. Because of the high reproducibility and sensitivity of fluorescence spectrophotometers, a 2-fold increase in fluorescence represents more that sufficient change in signal to use it as a sensitive assay. Therefore, the effect of ATP, GTP and UTP was tested in SCAN reactions containing AB-RNA-F and the unlabeled oligonucleotide 67B (FIG. 28B).

[3] = system: AB RNA; experiment: UV absorbance (260 nM) thermal melting of AB RNA; format: binding
Method: The experiment described below was performed to monitor the stabilization of an RNA structure upon ligand binding. In this experiment, absorbance at 260 nm was monitored as the temperature of the sample was increased. The increase in temperature causes the RNA to unfold, thereby allowing individual bases to absorb more ultraviolet light.

[4] = system: HIV RRE RNA; experiment: SCAN nitrocellulose filter binding assay, RRE RNA and biotinylated complementary oligonucleotide; details: heterologous RNA target, FIG. 17
Method: (§1) Adsorption to nitrocellulose filters: This embodiment takes advantage of the fact that most proteins tightly adsorb to nitrocellulose filters. When using a biotinylated oligonucleotide and a labelled target RNA, free SA or a SA derivative such as SA:alkaline phosphatase conjugate (SA:AP), SA:β-galactosidase (SA:BG), or other SA-conjugate or fusion protein, is added to the reaction to allow binding to the biotin moiety in the oligonucleotide. Subsequently, the reaction is filtered through 96-well nitrocellulose filter plates (Millipore, Bedford, Mass., HATF or NC). Labeled target RNA hybridized to the biotinylated oligonucleotide is retained in the filter through the adsorption of SA or its derivative to the filter, while unhybridized RNA passes through. […] Therefore, the use of SA fusion proteins or conjugates is preferred. An example of the use of this method is described in Example 3 below.
The target RNA was an RNA molecule containing the binding site for the HIV Rev protein (Rev Responsive Element, RRE; 5′-GAAUACUAUGGGCGCAGCGUCAAUGACGCUGACGGUACAGGCCAGACAAUUAUUGUCUGGUAUAGU-3′- SEQ ID NO:2) which had been labelled with 32P as described in Example 1 above. […] The filtrate was further washed with 400 μl of the same buffer and the amount of RRE retained in the filter was determined by liquid scintillation counting. […]

[5] = biological target: AB-RNA; experiment: SCAN nitrocellulose filter binding assay, AB-RNA and biotinylated oligonucleotide 67B
Method: as §1, with “below. SCAN reactions containing 100 nM radiolabeled AB-RNA and 250 nM biotinylated oligonucleotide 67B were incubated with increasing amounts of ATP or UTP as test ligands. In the absence of test ligand, 70% of AB-RNA was retained on NC-filters. Inhibition of RNA retention on NC-filters Inhibition of RNA retention on NC-filters (% inhibtion) was obtained as (1−(R/R0)×100), where R0 is retention without test ligand and R is retention with test ligand. […]” for “below.”

[6] = system: AB RNA; experiment: SCAN assay under equilibrium conditions (dissociation of pre-formed AB RNA:oligonucleotide complexes); format: binding; details: 100 μM ATP, 20 nM AB RNA, 100 nM oligonucleotide
From the text: A screening assay having this configuration has the advantage of removing time constraints for various steps in the assay. In addition, thermodynamic parameters associated with ligand binding can be more easily derived from the results of the assay. Using a series of oligonucleotides of various length and target sites comprising AB RNA, a group of oligonucleotides has been identified that fully equilibrate with ATP (an example is shown in FIG. 20, top panel). The oligonucleotide used is complementary to the sequence shown in bold-faced letters (FIG. 20, top panel). Target RNA:oligonucleotide complexes were pre-formed by incubated a solution containing 100 nM AB RNA and 500 nM oligonucleotide for 2 h at 25° C. Dissociation was initiated by diluting the reaction 5-fold in the presence or absence of 100 μM ATP (resulting in final concentrations of AB RNA, 20 nM; oligonucleotide, 100 nM; ATP, 100 μM). Binding of hybrids to nitrocellulose filters was performed as described above.

[7] = system: AB-RNA; experiment: Gel shift assay: hybridization of radiolabelled AB-RNA to complementary DNA oligonucleotide RBS-87-8A; format: binding; details: 30 μM ligand
From the text: A gel shift protocol, though nominally a low-throughput method, is an important tool for the initial selection of the assay configuration for oligonucleotide-based methods to be used with each particular target RNA. Typically, the target RNA is transcribed in vitro, using as template a DNA that contains the sequence for the T7-RNA polymerase promoter followed by a region encoding the target RNA, and [^32P]-UTP to produce radiolabelled RNA. Conditions for the T7 RNA polymerase transcription reaction using oligonucleotide templates have been described by Milligan et al., Nuc. Acids Res., 15: 8783, 1987. The [^32P]-labelled target RNA is optionally heat denatured at 90° C. for 2 min and chilled on ice for 2 min, after which aliquots are incubated in the absence and presence of test ligands and increasing concentrations of a complementary oligonucleotide. The reaction mixtures are then resolved in polyacrylamide native gels containing or lacking the test ligands.
AB-RNA was transcribed using as template the DNA oligonucleotide RBS-87-8A, (5′-GGAACCTTGCCGGCACCGAAGTGCCGCAGTTTCTTCCCAAGGTTCCTATAGTGAGTCGTATTA-3′-SEQ ID NO:1), which contains the sequence for the T7-RNA polymerase promoter followed by a region encoding AB-RNA. [32P]-labelled AB-RNA was obtained by including [32P]-UTP in the transcription reaction. […]

competition with the oligonucleotide for binding to AB-RNA [7]	Structure (SMILES)	IC50 ([1]; PMP-SA beads, room temperature, read-out: ligand concentration reducing the amount of hybrids formed by 50%) [mM]	IC50 ([2]; 60 nM AB-RNA-F, emission 535 nm, read-out: IC50 for inhibition of fluorescence increase) [mM]	temperature of new transition in first derivative of absorbance, seen only with ligand ([3]; absorbance at 260 nm, FIG. 21) [°C]	effect of ligand on RNA structure ([3]; thermal melting)	effect on RRE based SCAN reactions [4]	IC50 ([5]; 100 nM AB-RNA, 250 nM oligonucleotide 67B, read-out: ligand concentration inhibiting AB-RNA retention on NC-filters by 50%) [mM]	specificity factor ATP versus UTP ([5]; ratio of concentrations for 50% inhibition) [fold]	inhibition of oligo:RNA complex [6]	effect on fluorescence increase [2]	effect on amount of hybrids bound to PMP-SA beads ([1]; increasing ligand concentrations)
–	Nc1ncnc2c1ncn2[C@@H]1O[C@H](COP(=O)(O)OP(=O)(O)OP(=O)(O)O)[C@@H](O)[C@H]1O [ATP]	0.025	5	40	stabilizes the RNA structure	no effect	5	100	approximately 60%	–	–
–	Nc1nc2c(ncn2[C@@H]2O[C@H](COP(=O)(O)OP(=O)(O)OP(=O)(O)O)[C@@H](O)[C@H]2O)c(=O)[nH]1 [GTP]	–	–	–	–	–	–	–	–	no effect at all	–
unable to compete	O=c1ccn([C@@H]2O[C@H](COP(=O)(O)OP(=O)(O)OP(=O)(O)O)[C@@H](O)[C@H]2O)c(=O)[nH]1 [UTP]	–	–	–	–	–	–	–	–	some effect at much higher concentrations	no effect
